Measured values reported in ChEMBL document CHEMBL1201862, “PubChem BioAssay data set” (2004).
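Where inhibition never reached the appropriate level, the endpoint shown equals the highest concentration tested. Otherwise, values were interpolated linearly from a five-concentration, 48-hour dose response in 96-well plates. GI50 is the concentration that inhibits growth by half.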 Active and inactive are the calls of the source. Rule as the data show it: active = GI50 up to about 1.1 µM and inactive = higher.

Key:
Assay in all cases: NCI anticancer screen, dose series, 48 h
[1] = tested on: SW-620
[2] = tested on: KM12
[3] = tested on: MOLT-4
[4] = tested on: OVCAR-4
[5] = tested on: RXF 393
[6] = tested on: OVCAR-3
[7] = tested on: SF-539
[8] = tested on: SN12C
[9] = tested on: A498
[10] = tested on: IGROV-1
[11] = tested on: SK-OV-3
[12] = tested on: OVCAR-8
[13] = tested on: RPMI-8226
[14] = tested on: CAKI-1
[15] = tested on: EKVX
[16] = tested on: COLO 205
[17] = tested on: SF-268
[18] = tested on: MCF7
[19] = tested on: PC-3
[20] = tested on: DU-145

SMILES: O=C(Cn1ccnc1[N+](=O)[O-])c1ccc(F)cc1
- GI50 [1]: > 100 µM (inactive)
- GI50 [2]: > 100 µM (inactive)
- GI50 [3]: > 100 µM (inactive)
- GI50 [4]: > 100 µM (inactive)
- GI50 [5]: > 100 µM (inactive)
- GI50 [6]: > 100 µM (inactive)
- GI50 [7]: > 100 µM (inactive)
- GI50 [8]: > 100 µM (inactive)
- GI50 [9]: > 100 µM (inactive)
- GI50 [10]: > 100 µM (inactive)
- GI50 [11]: > 100 µM (inactive)
- GI50 [12]: > 100 µM (inactive)
- GI50 [13]: > 100 µM (inactive)
- GI50 [14]: > 100 µM (inactive)
- GI50 [15]: > 100 µM (inactive)
- GI50 [16]: > 100 µM (inactive)
- GI50 [17]: > 100 µM (inactive)

SMILES: CCCCc1ccc(Nc2cc(=O)n(C)c(=O)[nH]2)cc1
- GI50 [18]: 22.9 µM (inactive)
- GI50 [1]: > 100 µM (inactive)
- GI50 [2]: 49.4 µM (inactive)
- GI50 [4]: 32.8 µM (inactive)
- GI50 [5]: > 100 µM (inactive)
- GI50 [6]: > 100 µM (inactive)
- GI50 [7]: 84.3 µM (inactive)
- GI50 [8]: > 100 µM (inactive)
- GI50 [9]: > 100 µM (inactive)
- GI50 [10]: > 100 µM (inactive)
- GI50 [11]: > 100 µM (inactive)
- GI50 [12]: 57 µM (inactive)
- GI50 [13]: > 100 µM (inactive)
- GI50 [14]: > 100 µM (inactive)
- GI50 [15]: > 100 µM (inactive)
- GI50 [19]: 91.2 µM (inactive)
- GI50 [16]: > 100 µM (inactive)
- GI50 [17]: 64.4 µM (inactive)

SMILES: N#COc1ccc(Oc2ccc(OC#N)cc2)cc1
- GI50 [2]: > 100 µM (inactive)
- GI50 [3]: 72.4 µM (inactive)
- GI50 [4]: > 100 µM (inactive)
- GI50 [5]: > 100 µM (inactive)
- GI50 [6]: > 100 µM (inactive)
- GI50 [7]: 43.5 µM (inactive)
- GI50 [8]: 55.5 µM (inactive)
- GI50 [9]: > 100 µM (inactive)
- GI50 [10]: > 100 µM (inactive)
- GI50 [11]: > 100 µM (inactive)
- GI50 [12]: > 100 µM (inactive)
- GI50 [13]: 32 µM (inactive)
- GI50 [14]: > 100 µM (inactive)
- GI50 [15]: > 100 µM (inactive)
- GI50 [16]: 22.4 µM (inactive)
- GI50 [17]: > 100 µM (inactive)

SMILES: Nc1cc[nH]c(=O)n1
- GI50 [1]: > 100 µM (inactive)
- GI50 [2]: > 100 µM (inactive)
- GI50 [4]: > 100 µM (inactive)
- GI50 [5]: > 100 µM (inactive)
- GI50 [6]: > 100 µM (inactive)
- GI50 [7]: > 100 µM (inactive)
- GI50 [8]: > 100 µM (inactive)
- GI50 [9]: > 100 µM (inactive)
- GI50 [10]: > 100 µM (inactive)
- GI50 [11]: > 100 µM (inactive)
- GI50 [12]: > 100 µM (inactive)
- GI50 [13]: > 100 µM (inactive)
- GI50 [14]: > 100 µM (inactive)
- GI50 [15]: > 100 µM (inactive)
- GI50 [16]: > 100 µM (inactive)
- GI50 [17]: > 100 µM (inactive)

SMILES: CC(=O)OC1CC[C@@]2(C)C(CC(OC3OC(CO)C(O)C(O)C3O)[C@]3(C)C2CCC24CC23CC[C@H]4C(C)CC(O)[C@@H](O)C(C)(C)O)C1(C)C (stereo partly drawn)
- GI50 [1]: 16.6 µM (inactive)
- GI50 [2]: 10.5 µM (inactive)
- GI50 [3]: 11.4 µM (inactive)
- GI50 [4]: > 50 µM (inactive)
- GI50 [5]: 12.5 µM (inactive)
- GI50 [6]: 16.5 µM (inactive)
- GI50 [7]: 10.3 µM (inactive)
- GI50 [8]: 12.7 µM (inactive)
- GI50 [9]: 16.8 µM (inactive)
- GI50 [10]: 11.5 µM (inactive)
- GI50 [11]: > 50 µM (inactive)
- GI50 [12]: 19.9 µM (inactive)
- GI50 [13]: 10.3 µM (inactive)
- GI50 [14]: 41.7 µM (inactive)
- GI50 [15]: 16.3 µM (inactive)
- GI50 [16]: 9.4 µM (inactive)
- GI50 [17]: 18.4 µM (inactive)

SMILES: O=S1(=O)C[C@@H](O)[C@H](O)CS1
- GI50 [1]: > 100 µM (inactive)
- GI50 [2]: > 100 µM (inactive)
- GI50 [3]: > 100 µM (inactive)
- GI50 [4]: > 100 µM (inactive)
- GI50 [5]: > 100 µM (inactive)
- GI50 [6]: > 100 µM (inactive)
- GI50 [7]: > 100 µM (inactive)
- GI50 [8]: > 100 µM (inactive)
- GI50 [9]: > 100 µM (inactive)
- GI50 [10]: > 100 µM (inactive)
- GI50 [11]: > 100 µM (inactive)
- GI50 [12]: > 100 µM (inactive)
- GI50 [13]: > 100 µM (inactive)
- GI50 [14]: > 100 µM (inactive)
- GI50 [15]: > 100 µM (inactive)
- GI50 [16]: > 100 µM (inactive)
- GI50 [17]: > 100 µM (inactive)

SMILES: COc1cc(C2(O)c3ccccc3C3=NCCN32)cc(OC)c1OC (stereo not drawn)
- GI50 [1]: > 100 µM (inactive)
- GI50 [2]: > 100 µM (inactive)
- GI50 [3]: 30.3 µM (inactive)
- GI50 [4]: > 100 µM (inactive)
- GI50 [6]: > 100 µM (inactive)
- GI50 [8]: > 100 µM (inactive)
- GI50 [9]: > 100 µM (inactive)
- GI50 [11]: > 100 µM (inactive)
- GI50 [13]: > 100 µM (inactive)
- GI50 [14]: > 100 µM (inactive)
- GI50 [20]: > 100 µM (inactive)
- GI50 [19]: > 100 µM (inactive)
- GI50 [16]: > 100 µM (inactive)
- GI50 [17]: > 100 µM (inactive)

SMILES: Cc1c2cc[n+](C)cc2c(C)c2c1[nH]c1ccccc12
- GI50 [18]: 3.08 µM (inactive)
- GI50 [1]: 1.17 µM (inactive)
- GI50 [2]: 0.402 µM (active)
- GI50 [3]: 0.912 µM (active)
- GI50 [4]: 2.77 µM (inactive)
- GI50 [5]: 1.75 µM (inactive)
- GI50 [6]: 2.99 µM (inactive)
- GI50 [7]: 0.468 µM (active)
- GI50 [8]: 0.16 µM (active)
- GI50 [9]: 4.26 µM (inactive)
- GI50 [10]: 3.44 µM (inactive)
- GI50 [11]: 6.67 µM (inactive)
- GI50 [12]: 0.399 µM (active)
- GI50 [13]: 8.49 µM (inactive)
- GI50 [14]: 4.39 µM (inactive)
- GI50 [15]: 0.718 µM (active)
- GI50 [16]: 0.665 µM (active)
- GI50 [17]: 0.408 µM (active)
